Test results as given in the NIST ThermoML archive (doi:10.1021/je050162g).

Experiment: xn = mol fraction of the nth substance listed
Conditions: 101 kPa, Liquid; for viscosity: Capillary tube (Ostwald / Ubbelohde) method; for excess molar volume: Direct dilatometry; for speed of sound: Linear variable-path acoustic interferometer

C=COC(C)=O [vinyl acetate] + Cc1ccc(C)cc1
Conditions | excess molar volume, 303.15 K [m3/mol] | excess molar volume, 308.15 K [m3/mol] | excess molar volume, 313.15 K [m3/mol] | speed of sound, 303.15 K [m/s] | speed of sound, 308.15 K [m/s] | speed of sound, 313.15 K [m/s] | viscosity, 303.15 K [mPa·s] | viscosity, 308.15 K [mPa·s] | viscosity, 313.15 K [mPa·s]
x2 = 0 | 0 | 0 | 0 | 1095.9 | 1072.5 | 1055.7 | 0.384 | 0.361 | 0.332
x2 = 0.0767 | -4.3e-08 | 2e-08 | 4.2e-08 | 1108.1 | 1084.9 | 1067.7 | 0.4 | 0.367 | 0.333
x2 = 0.1577 | -6.8e-08 | 3.8e-08 | 7.2e-08 | 1122.6 | 1098.2 | 1080.6 | 0.415 | 0.376 | 0.341
x2 = 0.2421 | -7.3e-08 | 5.7e-08 | 9.8e-08 | 1138.8 | 1112.3 | 1094.7 | 0.428 | 0.387 | 0.352
x2 = 0.3332 | -7.2e-08 | 7.3e-08 | 1.21e-07 | 1156.6 | 1128 | 1110.6 | 0.44 | 0.399 | 0.365
x2 = 0.43 | -6.1e-08 | 8.9e-08 | 1.41e-07 | 1175.5 | 1145.6 | 1128.6 | 0.453 | 0.414 | 0.38
x2 = 0.5319 | -5.1e-08 | 9.6e-08 | 1.48e-07 | 1195.4 | 1165.3 | 1148.8 | 0.469 | 0.432 | 0.399
x2 = 0.6371 | -2.7e-08 | 9.2e-08 | 1.4e-07 | 1215.8 | 1187.3 | 1171 | 0.489 | 0.453 | 0.422
x2 = 0.7488 | -4e-09 | 7.6e-08 | 1.13e-07 | 1237.4 | 1211.9 | 1196.4 | 0.512 | 0.478 | 0.447
x2 = 0.8654 | 6e-09 | 4.4e-08 | 7.2e-08 | 1259.7 | 1238.6 | 1224.5 | 0.538 | 0.504 | 0.475
